Experimental data: paper PMC11489250, “Optimized methods for measuring competitive binding of chemical substances to thyroid hormone distributor proteins transthyretin and thyroxine binding globulin” (Archives of Toxicology, 2024)
Like-named read-outs stand apart in the source and are kept apart here.

Columns and labels:
Human TTR = biological target: T1, Human TTR (Homo sapiens, UniProt P02766); test: Optimized competitive TTR-binding assay with FITC-T4 (fluorescence intensity readout)
T1 construct: Transthyretin (prealbumin, TTR) >95% from human plasma; purchased Sigma Aldrich (Zwijndrecht, The Netherlands); host or cells: human plasma
Method: All TTR-binding experiments were performed in black 96-well polystyrene nonbinding plates. Experimental wells and background wells were prepared in triplicate per plate. […] Fluorescence intensity (FI) was measured at λex = 485 ± 20 nm and λem = 528 ± 20 nm (CLARIOstar Plus microplate reader, BMG LABTECH).
To test the effect of the change in temperature and incubation time, a saturation experiment (N = 3, n = 3) was performed in Tris–HCl buffer (0.1 M Tris (Thermo Scientific, Rockford, USA), 0.1 M NaCl (Merck KGaA, Darmstadt, Germany), 1 mM EDTA (VWR International, B.V. Amsterdam, The Netherlands); pH 8.0). […] Two 96-well plates were prepared at the same time. After shaking for 5 min on a plate shaker, one prepared plate was incubated on ice (at 4 °C) and another plate was incubated at room temperature (22 °C). For both plates the fluorescence was measured at different time points: 5 min, 15 min, 60 min and 120 min.
First, 48 µL Tris–HCl buffer (pH 8.0) was pipetted to the wells, followed by 2 µL of the compound (in DMSO). […] Final solvent (DMSO) concentrations in all conditions amounted to 1%. All plates were shaken for 5 min on a plate shaker, followed by an incubation for 15 min at room temperature. The standard operation procedure (SOP) is provided in Supplementary Information file (Section 3).
Calculations of the ICX, Kd and Ki values of TTR-binding assays are described in the Supplementary Information file (Section 3).
3.7.5 The competitive TTR binding screening assay
3.7.8 Processing data to determine IC50 and calculate Ki value

TBG [1] = settings: calculated by Ki = 1/binding constant; ref Cao et al. [2011]; read-out: TBG literature Ki; cited from earlier work
[2] = biological target: T2, thyroxine-binding globulin (TBG) (Homo sapiens, UniProt P05543); test: Competitive TBG-binding assay with FITC-T4 (fluorescence polarization readout)
T2 construct: purchased Bio-rad Laboratories, Inc. (Veenendaal, The Netherlands)
T2 sequence (P05543 21-415): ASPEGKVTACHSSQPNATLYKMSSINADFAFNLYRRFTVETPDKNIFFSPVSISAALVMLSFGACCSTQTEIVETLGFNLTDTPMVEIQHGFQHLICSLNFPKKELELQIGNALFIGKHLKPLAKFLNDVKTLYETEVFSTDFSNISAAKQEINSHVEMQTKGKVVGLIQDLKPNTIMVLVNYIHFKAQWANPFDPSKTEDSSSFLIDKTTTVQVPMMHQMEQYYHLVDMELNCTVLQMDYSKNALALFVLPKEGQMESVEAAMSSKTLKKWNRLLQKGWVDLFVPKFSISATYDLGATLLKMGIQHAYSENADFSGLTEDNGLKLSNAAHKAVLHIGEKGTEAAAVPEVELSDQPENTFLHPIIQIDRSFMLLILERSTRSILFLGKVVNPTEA
Method: Prepared plates were first shaken for 5 min and then incubated for 15 min at room temperature before being analysed by the microplate reader at FP mode (CLARIOstar Plus, BMG LABTECH).
Accordingly, dilution series of all compounds were prepared in DMSO. First, 24 µL Tris–HCl buffer was pipetted to the wells, followed by 1 µL of the compound stock solution. […] Solvent (DMSO) concentrations in all conditions were 1%. The plates were shaken for 5 min on a plate shaker, followed by an incubation for 15 min at room temperature.
The adjusted polarization was set to a reference value of 35 mP. The adjustment gain values ranged from 1900 to 2200. The plate layout of TBG-binding assay is provided in Supplementary Information file (Section 4).
For the competitive TBG-binding experiments, concentration–response curves were fitted:2 r=rmin+rmax-rmin/1+IC50/X^HillSlope with rmin and rmax being the minimum and maximum anisotropy values, respectively. X is the concentration of added competitor. Equations that were used for the calculation of the ICX and Ki values in the TTR-binding assays (Supplementary Information, Section 3) were also used to determine the ICX and Ki values in TBG-binding assays without any changes, respectively. The single Kd, IC20, IC50 and Ki were determined based on replicates (n) in each experiment, and then the average and confidence intervals were determined based on the Kd, IC20, IC50 and Ki values from sperate experiments (N).
Alternatively, another approach to determine ICX, Kd and Ki values based on a theoretical model of ligand–protein binding biochemistry was taken as described in detail in the Supplementary Information file (Section 5). For this approach, R was used to fit the model to the data. The results obtained from the two approaches were compared in Section 3.4.
S5.2 Ki and IC50 estimation

Recombinant TTR = system: Recombinant TTR; set-up: method as in Marchesini et al. [2006]; settings: highest concentration tested 10 µM; ref Marchesini et al. [2006]; cited from earlier work
TTR = settings: calculated by Ki = 1/binding constant; ref Cao et al. [2011]; read-out: TTR literature Ki; cited from earlier work
TBG [3] = system: TBG; set-up: method as in Marchesini et al. [2006]; settings: highest concentration tested 10 µM; ref Marchesini et al. [2006]; cited from earlier work
[4] = T4EQi = highest human blood concentration x T4-REPi

CC(C)(c1ccc(O)cc1)c1ccc(O)cc1 [BPA, bisphenol-A]
IC20 (Human TTR; 110 nM FITC-T4, 30 nM TTR, RT, 15 min, average [95% CI], read-out: TTR IC20): 14.7 µM | IC50 (Human TTR; 110 nM FITC-T4, 30 nM TTR, RT, 15 min, average [95% CI], read-out: TTR IC50): 63.1 µM | Ki (Human TTR; 110 nM FITC-T4, 30 nM TTR, RT, 15 min, derived from IC20, average [95% CI], read-out: TTR Ki): 32.1 µM | Relative potency compared to T4 (T4-REP), TTR-binding assay (Human TTR; T4-REPi = IC20(T4)/IC20(i)): 0.002 | T4EQ concentration (TTR binding) (Human TTR; [4]): 0.16 nM | Contribution to T4EQ concentration (TTR binding) (Human TTR; mixture of highest human blood concentrations of five model compounds): 0.8% | Ki (TBG [1]): 1.7 µM | Ki ([2]; 5 nM FITC-T4, 10 nM TBG, RT, 15 min, derived from IC20, descriptive model (Graphpad), average [95% CI], read-out: TBG Ki): 16.8 µM | IC50 ([2]; 5 nM FITC-T4, 10 nM TBG, RT, 15 min, descriptive model (Graphpad), average [95% CI]): 172 µM | IC20 ([2]; 5 nM FITC-T4, 10 nM TBG, RT, 15 min, descriptive model (Graphpad), average [95% CI], read-out: TBG IC20): 32.6 µM | IC20 ([2]; 5 nM FITC-T4, 10 nM TBG, RT, theoretical model in R, average [95% CI], read-out: TBG IC20, theoretical model): 35.7 µM | Ki ([2]; 5 nM FITC-T4, 10 nM TBG, RT, theoretical model in R, average [95% CI], read-out: TBG Ki values, theoretical model): 18.4 µM | Relative potency compared to T4 (T4-REP), TBG-binding assay ([2]; T4-REPi = IC20(T4)/IC20(i)): 0.0003 | T4EQ concentration (TBG binding) [2, 4]: 0.023 nM | Contribution to T4EQ concentration (TBG binding) ([2]; mixture of highest human blood concentrations of TBBPA, triclosan and BPA): 1.1% | competitive binding to TTR (in words) (Recombinant TTR): no competitive binding | Ki (TTR): 3.23 µM | competitive binding to TBG (in words) (TBG [3]): no competitive binding
